Patent US12344610B2, “APOL1 inhibitors and methods of use” (Maze Therapeutics, Inc., priority 2022, dated 2025)

Legend:
[1] = system: Trypanosoma brucei Lister 427 VSG221 with APOL1 G2 recombinant protein; test: APOL1 G2 trypanosome cell rescue assay (Example B5); format: cell-based; conditions: Trypanosoma brucei, 20 h, read-out: APOL1 G2 Trypanosome Rescue EC50, Trypanosoma brucei Lister 427 VSG221 with APOL1 G2 recombinant protein, 20 hours, CellTiter-Glo; geometric mean of at least 2 assay runs; † = single assay run
In short: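 Recombinant mature APOL1 (residues 28-398, His-tag removed, E. coli-expressed, refolded from inclusion bodies, DDM buffer) at […] added with 250 trypanosomes/well in modified HMI-9 media. Duplicate 11-point 2-fold compound series, 0.4% DMSO; 20 h at 37° C, 5% CO2, then CellTiter-Glo luminescence for viability.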

[2] = system: HEK293 cells overexpressing APOL1 G2; test: APOL1 G2 HEK293 cell rescue assay (reversal of cell death caused by overexpression of APOL1); format: cell-based; conditions: Homo sapiens, HEK293, HEK293 overexpressing APOL1 G2; geometric mean of at least 2 assay runs; † = single assay run
In short: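 EC50 is the half-maximal effective concentration for reversing cell death driven by APOL1 G2 overexpression in HEK293 cells. Reported as geometric mean of at least 2 runs on separate days, each run averaging duplicate wells per plate; some values from a single run.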

Molecule CC(C)(c1ccc(OCCN2CCC3(CC2)C(=O)Nc2ccc(C#N)cc23)cn1)S(C)(=O)=O [Compound 191, 1′-(2-{[6-(2-methanesulfonylpropan-2-yl)pyridin-3-yl]oxy}ethyl)-2-oxo-1,2-dihydrospiro[indole-3,4′-piperidine]-5-carbonitrile] has an EC50 [1] of 104 nM and an EC50 [2] of 130 nM.
